# Values of other authors, collected in patent US11229617B2, “Topical anti-inflammatory compositions” (Achelios Therapeutics, Inc., priority 2016, dated 2022).
row,SMILES,pKa
1,CCCCCC(=O)O [hexanoic (caproic) acid],4.88
2,CC(C)(O)CC(=O)O [hydroxymethyl-butyric acid],4.55
